Data from article PMC9765437, “Antibiotic Acyldepsipeptides Stimulate the Streptomyces Clp-ATPase/ClpP Complex for Accelerated Proteolysis” (mBio, 2022).
Starred links: 1 amine or outer side, 2 acyl side, 3 side chain; linkers in the order of their positions; H or OH if unused. Positions of bridges follow the written chain, without caps; N, C: chain ends. Non-standard residues stand in square brackets, D forms with d. Residues, ends and D or L forms follow the SMILES beside them. *: point of attachment. Octatrienoyl(2E,4E,6E) = C/C=C/C=C/C=C/C(=O)*; Pro(4R-Me) = C[C@H]1CN[C@H](C(=O)O)C1; AMC = Cc1cc(=O)oc2cc(N*)ccc12; Suc = O=C(CCC(=O)[*:2])[*:1]; NMeA = CN[C@@H](C)C(=O)O

Experiments:
[1] = biological target: T1, ClpP1P2 (Streptomyces hawaiiensis, UniProt A0A6G5RDH7); assay: peptidase activation assay, Suc-LY-AMC; type: biochemical; details: activator binding via ClpP1; 10 μM ADEP1, 4 μM total ClpP, pH 7.5, 30°C
T1 construct: gene clpP; untagged full-length ClpP1 mixed with C-terminally His6-tagged full-length ClpP2, expressed in E. coli SG1146a; heterotetradecamer of two homoheptameric rings; with ATP-dependent Clp protease proteolytic subunit 2

[2] = biological target: T2, ClpC1 (Streptomyces hawaiiensis, UniProt A0A6G5RIJ6); details: 100 nM ATP, beta-casein, 30°C; ClpC1 alone and with ClpP1P2; unaffected by ADEP1
T2 construct: gene CEB94_23085

[3] = biological target: T3, ClpP1 (Streptomyces hawaiiensis, UniProt A0A6G5RDH7); assay: fluorogenic peptidase assay; type: biochemical; details: with ADEP1 as activator; 100 μM substrate, pH 7.5, 30°C
T3 construct: gene clpP; full-length unprocessed, untagged, expressed in E. coli SG1146a (clpP deletion), anion exchange; ADEP-induced processing between G24 and P25
T3 sequence (A0A6G5RDH7 1-219): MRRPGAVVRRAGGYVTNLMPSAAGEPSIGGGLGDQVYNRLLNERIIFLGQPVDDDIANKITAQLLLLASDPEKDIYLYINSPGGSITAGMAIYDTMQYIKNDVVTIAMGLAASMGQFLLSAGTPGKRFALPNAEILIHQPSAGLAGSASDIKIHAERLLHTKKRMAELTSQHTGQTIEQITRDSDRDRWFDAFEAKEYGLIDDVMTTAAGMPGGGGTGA

[4] = biological target: the molecule itself; assay: native gel or EMSA; native PAGE without cross-linker, with ADEP1: ClpP1 and ClpP2 (10 μM each) with 60 μM or 25 μM ADEP1 (ClpP:ADEP1 1:3 or 1:1.25), 3 h at 30°C; immunoblot with anti-ClpP1 or anti-6His
[5] = biological target: the molecule itself; assay: SEC; Superdex 200 Increase 10/300 GL; 80 μM protein, DMSO (no ADEP1), 30 min at 30°C; buffer GF (50 mM HEPES-KOH, 150 mM KCl, 20 mM MgCl2, 10% glycerol, 1 mM DTT, pH 7.5)

T2 sequence (A0A6G5RIJ6 1-841): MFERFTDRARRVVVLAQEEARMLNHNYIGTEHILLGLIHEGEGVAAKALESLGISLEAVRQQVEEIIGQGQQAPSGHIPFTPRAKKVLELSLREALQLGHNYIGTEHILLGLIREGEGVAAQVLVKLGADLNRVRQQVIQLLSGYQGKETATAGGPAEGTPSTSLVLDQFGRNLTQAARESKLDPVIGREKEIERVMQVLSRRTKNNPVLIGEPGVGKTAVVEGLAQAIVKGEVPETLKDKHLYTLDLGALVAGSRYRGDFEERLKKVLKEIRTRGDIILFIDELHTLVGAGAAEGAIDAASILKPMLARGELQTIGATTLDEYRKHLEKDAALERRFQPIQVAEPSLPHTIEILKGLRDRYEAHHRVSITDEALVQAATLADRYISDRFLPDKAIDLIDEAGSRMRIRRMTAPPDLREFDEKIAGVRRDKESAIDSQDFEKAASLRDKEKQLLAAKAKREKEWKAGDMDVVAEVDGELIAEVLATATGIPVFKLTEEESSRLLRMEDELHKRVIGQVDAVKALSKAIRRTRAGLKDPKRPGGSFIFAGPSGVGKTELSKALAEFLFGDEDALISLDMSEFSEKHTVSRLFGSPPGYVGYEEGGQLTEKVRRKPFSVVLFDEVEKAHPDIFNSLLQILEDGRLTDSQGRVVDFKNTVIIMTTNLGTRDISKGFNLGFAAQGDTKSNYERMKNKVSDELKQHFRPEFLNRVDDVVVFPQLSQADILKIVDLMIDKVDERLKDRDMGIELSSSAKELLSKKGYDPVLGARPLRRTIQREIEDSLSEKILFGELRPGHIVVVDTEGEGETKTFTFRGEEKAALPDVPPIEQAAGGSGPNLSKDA

## C/C=C/C=C/C=C/C(=O)N[C@@H](Cc1ccccc1)C(=O)N[C@H]1COC(=O)[C@@H]2C[C@@H](C)CN2C(=O)[C@H](C)NC(=O)[C@H](C)N(C)C(=O)[C@@H]2CCCN2C1=O [ADEP1] ({Octatrienoyl(2E,4E,6E)}-FSP[NMeA]A[Pro(4R-Me)]; ester 2-C)
[1]
  peptidase activation assay, Suc-LY-AMC: ADEP1 clearly induced the hydrolysis of Suc-LY-AMC by either ClpP1 alone or by the mixed complex

## Nc1ncnc2c1ncn2[C@@H]1O[C@H](COP(=O)(O)OP(=O)(O)OP(=O)(O)O)[C@@H](O)[C@H]1O [ATP]
[2]
  ADP-Glo ATP turnover assay: directly measured the turnover of ATP to ADP by ClpC1 in casein degradation assays

## Cc1cc(=O)oc2cc(NC(=O)[C@H](Cc3ccc(O)cc3)NC(=O)[C@H](CC(C)C)NC(=O)CCC(=O)O)ccc12 [Suc-LY-AMC] (Suc-Leu-Tyr-{AMC})
[3]
  fluorogenic peptidase assay: ADEP1 clearly induced the hydrolysis of Suc-LY-AMC by either ClpP1 alone

B1: ClpP2 of Streptomyces hawaiiensis NRRL 15010, C-terminally His6-tagged (enzyme, UniProt A0A5B9BIX9 1-235, looked up)
chain: MNQFPGSGIYDRMHAVQDMSASQGRYTGPQAESRYIIPRFVERTSQGIREYDPYAKLFEERVIFLGVQIDDASANDVMAQLLCLESMDPDRDISVYINSPGGSFTALTAIYDTMQYVKPDVQTVCMGQAASAAAVLLAAGTPGKRMALPNARVLIHQPYSETGRGQVSDLEIAANEILRMRSQLEDMLAKHSTTPVEKIREDIERDKILTAEDALSYGLIDQVISTRKMDNSSLR
notes: ClpP2, Clp protease proteolytic subunit 2 of Streptomyces hawaiiensis NRRL 15010, orf CEB94_14105 of GenBank CP021978.1; from the first start codon, unprocessed; also called ClpP2-His6; ClpP2His; source: E. coli SG1146a (ΔclpP), purified (Ni-NTA); also co-expressed with ClpP1 from pETDUET-1, in lysate; not shown: His6, C-terminal, kept
[4]
  stoichiometry N: 7

B2: ClpP2 of Streptomyces hawaiiensis NRRL 15010, untagged (enzyme, UniProt A0A5B9BIX9 1-235, looked up)
chain: MNQFPGSGIYDRMHAVQDMSASQGRYTGPQAESRYIIPRFVERTSQGIREYDPYAKLFEERVIFLGVQIDDASANDVMAQLLCLESMDPDRDISVYINSPGGSFTALTAIYDTMQYVKPDVQTVCMGQAASAAAVLLAAGTPGKRMALPNARVLIHQPYSETGRGQVSDLEIAANEILRMRSQLEDMLAKHSTTPVEKIREDIERDKILTAEDALSYGLIDQVISTRKMDNSSLR
notes: ClpP2 of Streptomyces hawaiiensis NRRL 15010, orf CEB94_14105 of GenBank CP021978.1; unprocessed; calculated mass of the heptamer 182.2 kDa; also called native ClpP2; source: E. coli SG1146a (ΔclpP), purified (anion-exchange chromatography)
[5]
  stoichiometry N: 7
